Patent US20220331408A1, “TREATMENT OF GLYCOGEN STORAGE DISEASE (GSD)” (GENETHON, priority 2019, published 2022)

How the values were obtained:
[1] = target: GAA (Homo sapiens, UniProt P10253); experiment: GAA activity in tissues (4-MU substrate cleavage) of GAA KO mice injected with AAV-hGAA plus chaperones; format: in vivo; settings: for GAA activity (uptake) in tissues: tissues overall (FIG. 7)
Procedure: (§1) Three to four-month-old GAA deficient male mice were divided into six groups and one control group was composed by wild-type littermates. Each group was composed by eight mice in maximum two cages, to facilitate the administration of the drugs dissolved in drinking water. Starting from day 0, GAA deficient (KO) mice (mouse strain B6; 129-Gaa^tm1Rabn/J) were injected with AAV-hGAA at 1×10^11 vg/kg via tail vein injection in combination with the different pharmacological chaperones (PC) dissolved in the drinking water. In parallel, untreated GAA wild-type mice and two groups of GAA deficient mice injected with the AAV-hGAA vector or PBS were used as controls. PC molecules were orally administered to the mice, using a “3 days on/4 days off” regimen, consisting in three consecutive days of treatment followed by four consecutive days with drinking water only, as described in FIG. 4. Mice receive 100 mg/kg/die of duvoglustat (DNJ, AX61Q1, Interchim, San Diego, Calif.), 100 mg/kg/die of duvoglustat combined with 25 mg/kg/die of ambroxol hydrochloride (DNJ-ABX), 25 mg/kg/die of ambroxol hydrochloride (ABX, A9797, Sigma, Saint Louis, Mo.), 4200 mg/kg/die of N-acetyl-cysteine (NAC, A7250, Sigma, Saint Louis, Mo.) dissolved in drinking water (FIG. 4) or normal drinking water.
Circulating hGAA activity and levels were monitored over a period of two months. Mice were sacrificed and different organs and muscles were collected (heart, diaphragm, quadriceps, and triceps) to measure the uptake of GAA in tissues and the glycogen clearance.
At the end of the study (2 months post-injection), animals were sacrificed by CO2 inhalation. Heart, diaphragm, quadriceps, and triceps were collected and snap-frozen in liquid nitrogen for biochemical analysis. Frozen samples are stored at −80° C. until processing.
GAA activity was assessed in plasma and tissue by measurement of 4-methyl-umbelliferyl-α-d-glucoside (4-MU, Sigma, St Louis, Mo.) cleavage at pH 4.3. To this end, mouse tissues collected at sacrifice was homogenized in PBS. Insoluble proteins were removed by centrifugation. The protein content of the resultant lysates was quantified via the BCA Protein Assay (Thermo Fisher Scientific, Waltham, Mass.). Plasma and tissues samples were diluted in water and 10 μL of each sample were incubated with 20 μL of reconstituted substrate for 1 hr at 37° C. After stopping the reaction, the released fluorescence was measured with EN-SPIRE® fluorimeter (Perkin Elmer, Waltham, Mass.). GAA activity was normalized against total protein content or plasma volume.

[2] = tested on: GAA; settings: Pompe cells model expressing mutant forms of GAA, reference [9]; cited from earlier work
[3] = target: T1, human GAA (hGAA) (Homo sapiens, UniProt P10253); experiment: Mature lysosomal 70 KDa hGAA in tissues (uptake) by Western blot, wild-type mice injected with AAV-GAA plus chaperones; format: in vivo; set-up: expressed in transfected cells; settings: for GAA uptake in tissues: tissues overall (FIG. 3)
Procedure: Six-eight-week-old C57Bl/6 male mice were divided into 9 groups of five mice. 5×10^11 vg/kg of AAV8-sp7-Δ8-co1GAA vectors were administered at day 0 intravenously in awake, restrained animals via tail vein injection. Two months after the AAV treatment, 7 pharmacological chaperone molecules or combination of them were orally administered to the mice using a “3 on/4 off” regimen (three consecutive days of treatment followed by four consecutive days with drinking water only) for four weeks. At the end of this four-week period, all mice were sacrificed and different organs and muscles were collected (liver, heart, brain, spinal cord, diaphragm, quadriceps, and triceps). C57Bl/6 mice were injected either with PBS (CTRL) or with 5×10^11 vg/kg of the AAV8 vector expressing secretable therapeutic hGAA polypeptide (AAV-GAA).
Two months after vector injection, mice were treated for four weeks with 100 mg/kg/die of duvoglustat (DNJ, AX61Q1, Interchim, San Diego, Calif.), 100 mg/kg/die of duvoglustat combined with 25 mg/kg/die of ambroxol (DNJ-ABX), 25 mg/kg/die of ambroxol hydrochloride (ABX, A9797, Sigma, Saint Louis, Mo.), 2 mg/kg/die of voglibose (VOGLIBOSE, S4101, Selleckchem, Houston, Tex.), 20 mg/kg/die of acarbose (ACARBOSE, S1271, Selleckchem, Houston, Tex.), 2 mg/kg/die of miglitol (MIGLITOL, S2589, Selleckchem, Houston, Tex.) or 4200 mg/kg/die of N-acetyl-cysteine (NAC, A7250, Sigma, Saint Louis, Mo.) dissolved in drinking water (FIG. 1). One group received normal drinking water (WATER).
Three months after vector injection, mice were sacrificed and the levels of human GAA (hGAA) in blood and tissues were analyzed by Western blot.
At the end of the study (3 months post-injection), animals were sacrificed by CO2 inhalation. Liver, heart, brain, spinal cord, diaphragm, quadriceps, and triceps were collected and snap-frozen in liquid nitrogen for biochemical analysis. Frozen samples were stored at −80° C. until processing.
Mouse tissues were collected at sacrifice and homogenized in PBS. Protein concentration was determined using the BCA Protein Assay (Thermo Fisher Scientific, Waltham, Mass.). Plasma and tissues samples were diluted 1:20 in water (except for brain, where samples were diluted 1:200). SDS-page electrophoresis was performed in a 4-12% gradient polyacrylamide gel. After transfer, the membrane was blocked with Odyssey buffer (Li-Cor Biosciences, Lincoln, Nebr.), incubated with an anti-human GAA antibody (rabbit monoclonal antibody, Abcam, Cambridge, UK) and an anti-GAPDH antibody (rabbit polyclonal antibodies, PA1-988, Life Technologies, Carlsbad, Calif.). The membrane was washed and incubated with the appropriate secondary antibody (Li-Cor Biosciences, Lincoln, Nebr.), and visualized by Odyssey imaging system (925-32213, Li-Cor Biosciences, Lincoln, Nebr.). To measure the uptake of GAA in tissues, the 70 KDa band (mature form), visualized by the anti-GAA antibody was quantified and normalized to the levels of expression of GAPDH used as loading control.

[4] = target: T1, human GAA (hGAA); experiment: Circulating hGAA levels by Western blot in wild-type mice injected with AAV-GAA and given chaperones in drinking water; format: in vivo; settings: wild-type C57Bl/6 mice, AAV-GAA 5×10^11 vg/kg, three months after vector injection, vs AAV-GAA mice on normal water (FIG. 2)
Procedure: Six-eight-week-old C57Bl/6 male mice were divided into 9 groups of five mice. 5×10^11 vg/kg of AAV8-sp7-Δ8-co1GAA vectors were administered at day 0 intravenously in awake, restrained animals via tail vein injection. Two months after the AAV treatment, 7 pharmacological chaperone molecules or combination of them were orally administered to the mice using a “3 on/4 off” regimen (three consecutive days of treatment followed by four consecutive days with drinking water only) for four weeks. At the end of this four-week period, all mice were sacrificed and different organs and muscles were collected (liver, heart, brain, spinal cord, diaphragm, quadriceps, and triceps). C57Bl/6 mice were injected either with PBS (CTRL) or with 5×10^11 vg/kg of the AAV8 vector expressing secretable therapeutic hGAA polypeptide (AAV-GAA). […]
Three months after vector injection, mice were sacrificed and the levels of human GAA (hGAA) in blood and tissues were analyzed by Western blot. […]
Mouse tissues were collected at sacrifice and homogenized in PBS. Protein concentration was determined using the BCA Protein Assay (Thermo Fisher Scientific, Waltham, Mass.). […] To measure the uptake of GAA in tissues, the 70 KDa band (mature form), visualized by the anti-GAA antibody was quantified and normalized to the levels of expression of GAPDH used as loading control.

[5] = target: T1, human GAA (hGAA); experiment: Circulating hGAA levels by Western blot in GAA KO mice injected with AAV-hGAA plus chaperones; format: in vivo; settings: AAV-hGAA 1×10^11 vg/kg, two months after vector injection (FIG. 5)
Procedure: as §1
Circulating hGAA activity and levels were monitored over a period of two months. […]

[6] = general statement, no test described; cited from earlier work

For `Nc1c(Br)cc(Br)cc1CN[C@H]1CC[C@H](O)CC1` [ABX, ambroxol], the “GAA activity (uptake) in tissues” value [1] is given as “No significant differences”, the “tissue uptake of GAA, especially in a tissue of the nervous system” value [2] is given as “did not increase” and the “GAA uptake in tissues” value [3] is given as “increase”.
In the case of `OC[C@H]1NC[C@H](O)[C@@H](O)[C@@H]1O` [DNJ, 1-deoxynojirimycin], the “levels of circulating hGAA” value [4] is reported as “significant increase”, the “levels of circulating hGAA” value [5] is reported as “significant increase” and the “GAA activity in heart” value ([1]; two months (FIG. 7A), significance only with both DNJ and ABX) is reported as “increased enzyme activity”. The “GAA activity in diaphragm” value ([1]; two months (FIG. 7B), significance only with both DNJ and ABX) was “increased enzyme activity”, the “GAA activity in triceps” value ([1]; two months (FIG. 7C), significance only with both DNJ and ABX) was “increased enzyme activity” and the “GAA activity in quadriceps” value ([1]; two months (FIG. 7D), significance only with both DNJ and ABX) was “increased enzyme activity”. For the same compound, the “mature lysosomal form of hGAA in triceps” value ([3]; Western blot (FIG. 3B), significance reached in triceps only for DNJ group) was “increased levels”, the “mature lysosomal form of hGAA in spinal cord” value ([3]; Western blot (FIG. 3F)) was “increased levels” and the “mature lysosomal form of hGAA in diaphragm” value ([3]; Western blot band density normalized to GAPDH (FIG. 3C)) was “increased levels”. The “GAA uptake in tissues” value [3] was “increase”.
With `CC(=O)N[C@@H](CS)C(=O)O` [NAC, N-acetylcysteine] the “levels of circulating hGAA” value [4] was “significant increase”, the “GAA activity (uptake) in tissues” value [1] was “No significant differences” and the “GAA uptake in tissues” value [3] was “increase”.
For “recombinant hGAA (ERT): recombinant GAA polypeptide alglucosidase alfa, marketed by Genzyme as Lumizyme or Myozyme”, the half-life [6] is given as “relatively short”.
